Assay results: patent US20160298165A1 (priority 2013, published 2016)

Tests used:
M. tuberculosis [1] = assay type: cell-based, Mycobacterium tuberculosis
M. tuberculosis H37Rv = assay type: cell-based, Mycobacterium tuberculosis
[2] = system: M. tuberculosis H37Rv ΔRD1 ΔpanCD; assay type: cell-based; details: cysteine 4 mM, 24 h
[3] = system: M. tuberculosis H37Rv ΔRD1 ΔpanCD; assay type: cell-based; details: cysteine 4 mM, 24 h; remark: listed apart in the source
M. tuberculosis [4] = assay type: cell-based, Mycobacterium tuberculosis; remark: listed apart in the source
[5] = system: M. tuberculosis H37Rv ΔRD1 ΔpanCD; assay type: cell-based; details: treated for 3 days
M. tuberculosis [6] = assay type: cell-based, Mycobacterium tuberculosis; remark: listed apart in the source
[7] = system: M. tuberculosis mc26230 (H37Rv ΔRD1 ΔpanCD); assay type: cell-based; details: anaerobic chamber; 4 mM VC

Antimycin was tested, and the cidal activity (M. tuberculosis [1]) was “no cidal activity”.
For CC[C@@H](CO)NCCN[C@@H](CC)CO [EMB, Ethambutol, reference compound], the “decrease in CFU” value (M. tuberculosis H37Rv) was “very slow decrease”.
N[C@@H](CS)C(=O)O [cysteine] was tested, and the “decrease in CFUs” value (M. tuberculosis H37Rv) was 6 log, the “effect of cysteine on killing of M. tuberculosis by ETH” value (M. tuberculosis H37Rv) was “did not increase the killing” and the “growth of M. tuberculosis with cysteine alone” value (M. tuberculosis H37Rv) was “not affected”. For the same compound, the “levels of free thiols” value [2] was “lower” and the “cystine concentration vs untreated sample” value [3] was 100 times.
In the case of Cc1c(C)c2c(c(C)c1O)CC[C@@](C)(CCC[C@H](C)CCC[C@H](C)CCCC(C)C)O2 [VE, vitamin E, reference compound], the “ROS level vs untreated samples” value (M. tuberculosis [4]) is reported as “lowered ROS level”.
With NNC(=O)c1ccncc1 [INH, Isoniazid] the “decrease in CFUs” value (M. tuberculosis H37Rv) was 3-4 log and the “intracellular levels of ferrous ions vs untreated sample” value [5] was “very high”.
For OC(CS)C(O)CS (stereo not drawn) [Dithio- threitol], the “sterilization of cultures when combined with INH” value (M. tuberculosis H37Rv) was “sterilized”.
For Cc1ccc2ccc3ccc(C)nc3c2n1 [neocuproine, reference compound], the “decrease in CFUs” value (M. tuberculosis H37Rv) was 5 log and the “growth of M. tuberculosis with neocuproine alone” value (M. tuberculosis H37Rv) was “no impact on the growth”.
In the case of O=C1O[C@H]([C@@H](O)CO)C(O)=C1O [VC, Vitamin C], the “cells with DNA breaks relative to untreated culture or culture treated with VE” value (M. tuberculosis [6]) is reported as “tenfold higher”, the “percentage of cells with DNA breaks” value (M. tuberculosis [6]) is reported as 17-25% and the “effect on M. tuberculosis viability” value [7] is reported as “no effect”. For the same compound, the “increase in total ROS” value (M. tuberculosis [4]) was “Up to threefold” and the “total ROS concentration relative to the untreated sample” value (M. tuberculosis [4]) was “did not substantially alter”.
